In ChEMBL document CHEMBL1759899, “Design and synthesis of several small-size HTLV-I protease inhibitors with different hydrophilicity profiles” (Bioorg Med Chem Lett, 2011):
Numbered stars: 1 amine (or outer) side, 2 acyl side, 3 side chain; on linkers, the order of the positions; unused ones are H or OH. Square brackets hold non-standard residues; d marks the D form. Peptide text beside a SMILES is read from it. * marks the point of attachment. X1 = O=C([C@@H](O)[C@H](Cc1ccccc1)N[*:1])[*:2]; Thz(5,5-Me2) = CC1(C)SCN[C@@H]1C(=O)O; Phg = N[C@H](C(=O)O)c1ccccc1; Tle = CC(C)(C)[C@H](N)C(=O)O; Dap = NC[C@H](N)C(=O)O; NHCH2tBu = CC(C)(C)CN*

Legend:
Protease = Protease (Human T-cell leukemia virus type I, UniProt Q82134, L40I); test: Inhibition of HTLV-1 recombinant protease L40I mutant
[1] = target: Protease (Human immunodeficiency virus 1) (UniProt Q9YQ12); test: Inhibition of HIV1 recombinant protease at 50 nM
[2] = system: T1, Protease (Human T-cell leukemia virus type I), Q82134 [L40I]; test: Inhibition of HTLV-1 recombinant protease L40I mutant at 50 nM
T1 sequence (whole entry): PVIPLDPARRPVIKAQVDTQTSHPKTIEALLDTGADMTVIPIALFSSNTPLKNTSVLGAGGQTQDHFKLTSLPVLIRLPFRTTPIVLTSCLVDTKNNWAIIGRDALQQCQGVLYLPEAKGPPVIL

Sequence of Protease (Human immunodeficiency virus 1) (Q9YQ12 as listed by the source): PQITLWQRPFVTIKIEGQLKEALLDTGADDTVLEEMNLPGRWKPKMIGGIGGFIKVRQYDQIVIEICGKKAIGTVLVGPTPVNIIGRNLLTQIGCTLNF

Structure (SMILES)	IC50 (Protease) [µM]	inhibition [1] [%]	inhibition [2] [%]
CC(C)(C)CNC(=O)[C@H]1N(C(=O)[C@@H](O)[C@H](Cc2ccccc2)NC(=O)[C@@H](NC(=O)[C@@H](NC(=O)CN)c2ccccc2)C(C)(C)C)CSC1(C)C (H-G[Phg][Tle][X1][Thz(5,5-Me2)]-NHCH2tBu)	0.0411	94	
CC(C)(C)CNC(=O)[C@H]1N(C(=O)[C@@H](O)[C@H](Cc2ccccc2)NC(=O)[C@@H](NC(=O)[C@@H](NCc2ccccc2)c2ccccc2)C(C)(C)C)CSC1(C)C		92	44
CC(C)(C)CNC(=O)[C@H]1N(C(=O)[C@@H](O)[C@H](Cc2ccccc2)NC(=O)[C@@H](NC(=O)[C@@H](N)c2ccccc2)C(C)(C)C)CSC1(C)C			38
COC(=O)N[C@H](C(=O)N[C@H](C(=O)N[C@@H](Cc1ccccc1)[C@H](O)C(=O)N1CSC(C)(C)[C@H]1C(=O)NCC(C)(C)O)C(C)(C)C)c1ccccc1	0.0391	99	
CC(C)(C)CNC(=O)[C@H]1N(C(=O)[C@@H](O)[C@H](Cc2ccccc2)NC(=O)[C@@H](NC(=O)[C@@H](NC(=O)CCN)c2ccccc2)C(C)(C)C)CSC1(C)C	0.0057	99	90
CC(C)(C)CNC(=O)[C@H]1N(C(=O)[C@@H](O)[C@H](Cc2ccccc2)NC(=O)[C@@H](NC(=O)[C@@H](NC(=O)CCCN)c2ccccc2)C(C)(C)C)CSC1(C)C	0.0254	99	
CC(C)(C)CNC(=O)[C@H]1N(C(=O)[C@@H](O)[C@H](Cc2ccccc2)NC(=O)[C@@H](NC(=O)[C@@H](NC(=O)[C@@H](N)CN)c2ccccc2)C(C)(C)C)CSC1(C)C (H-[Dap][Phg][Tle][X1][Thz(5,5-Me2)]-NHCH2tBu)		72	8
CN[C@H](C(=O)N[C@H](C(=O)N[C@@H](Cc1ccccc1)[C@H](O)C(=O)N1CSC(C)(C)[C@H]1C(=O)NCC(C)(C)C)C(C)(C)C)c1ccccc1	0.0314	> 99	38
COC(=O)N[C@H](C(=O)N[C@H](C(=O)N[C@@H](Cc1ccccc1)[C@H](O)C(=O)N1CSC(C)(C)[C@H]1C(=O)NNC(C)(C)C)C(C)(C)C)c1ccccc1	0.0104	99	
COC(=O)N[C@H](C(=O)N[C@H](C(=O)N[C@@H](Cc1ccccc1)[C@H](O)C(=O)N1CSC(C)(C)[C@H]1C(=O)NCC(C)(C)C)C(C)(C)C)c1ccccc1	0.0072	99	
CC(C)(C)CNC(=O)[C@H]1N(C(=O)[C@@H](O)[C@H](Cc2ccccc2)NC(=O)[C@@H](NC(=O)[C@@H](NC(=O)C(C)(CO)CO)c2ccccc2)C(C)(C)C)CSC1(C)C		86	18
CCN[C@H](C(=O)N[C@H](C(=O)N[C@@H](Cc1ccccc1)[C@H](O)C(=O)N1CSC(C)(C)[C@H]1C(=O)NCC(C)(C)C)C(C)(C)C)c1ccccc1	0.0255	99	38
CN(C)[C@H](C(=O)N[C@H](C(=O)N[C@@H](Cc1ccccc1)[C@H](O)C(=O)N1CSC(C)(C)[C@H]1C(=O)NCC(C)(C)C)C(C)(C)C)c1ccccc1		99	38
CCCC(=O)N[C@H](C(=O)N[C@H](C(=O)N[C@@H](Cc1ccccc1)[C@H](O)C(=O)N1CSC(C)(C)[C@H]1C(=O)NCC(C)(C)C)C(C)(C)C)c1ccccc1		99	
CCN(CC)[C@H](C(=O)N[C@H](C(=O)N[C@@H](Cc1ccccc1)[C@H](O)C(=O)N1CSC(C)(C)[C@H]1C(=O)NCC(C)(C)C)C(C)(C)C)c1ccccc1		98	39
